From paper PMC8955525 (2022)

Key:
[1] = system: FM1 r(CUG)10 (FM1 CUG × 10, r10FAM), annealed (RNA, repeat, fluorescein (fam) covalently incorporated between C13 and U14 (5th CUG repeat, hairpin loop)) CUGCUGCUGCUGCUGCUGCUGCUGCUGCUG; test: fluorescence microplate titration, sigmoidal fit; settings: none stated; nuclease-free water, room temperature; 200 nM RNA; apparent
[2] = system: native r(CUG)10 (r10) (RNA, repeat) CUGCUGCUGCUGCUGCUGCUGCUGCUGCUG; test: UV melting, 260 nm; settings: 100 mM NaCl, 10 mM sodium phosphate, pH 7.0, 1.5 µM RNA, L/M = 1, Tm 55.8 to 57.4 °C buffer, Tm 57.5 (L/M 0), 58.7 (L/M 1), 60.7 °C (L/M 16)
[3] = system: native r(CUG)7 (r7) (RNA, repeat) CUGCUGCUGCUGCUGCUGCUG; test: UV melting, 260 nm; settings: 100 mM NaCl; 10 mM sodium phosphate, pH 7.0; 1.5 µM RNA; L/M = 1; Tm 59.8 to 64.0 °C
[4] = system: FM1 r(CUG)10 (FM1 CUG × 10, r10FAM), annealed (RNA, repeat, fluorescein (fam) covalently incorporated between C13 and U14 (5th CUG repeat, hairpin loop)) CUGCUGCUGCUGCUGCUGCUGCUGCUGCUG; test: fluorescence melting of internal FAM; settings: none stated; nuclease-free water; 200 nM RNA; L/M = 1; Tm 52.2 to 54.9 °C; lower Tm at L/M > 1
[5] = system: FM1 r(CUG)10 (FM1 CUG × 10, r10FAM), annealed (RNA, repeat, fluorescein (fam) covalently incorporated between C13 and U14 (5th CUG repeat, hairpin loop)) CUGCUGCUGCUGCUGCUGCUGCUGCUGCUG; test: fluorometer fluorescence titration, sigmoidal fit; settings: none stated; nuclease-free water, 25 °C; 200 nM RNA; apparent; Langmuir fit 671 nM, quadratic fit 247 nM
[6] = system: FM1 r(CUG)10 (FM1 CUG × 10, r10FAM), annealed (RNA, repeat, fluorescein (fam) covalently incorporated between C13 and U14 (5th CUG repeat, hairpin loop)) CUGCUGCUGCUGCUGCUGCUGCUGCUGCUG; test: UV melting, 260 nm; settings: 100 mM NaCl; 10 mM sodium phosphate, pH 7.0; 1.5 µM RNA; L/M = 1; Tm 55.8 to 57.4 °C

Row | Compound | Kd [1] | binding [2] | ΔTm [3] | ΔTm [4] | Kd [5] | ΔTm [6]
1 | CN[C@@H]1[C@@H](O)[C@@H](O[C@@H]2[C@@H](O)[C@H](O[C@H]3OC(CN)=CC[C@H]3N)[C@@H](N)C[C@H]2N)OC[C@]1(C)O | 928 nM | yes | 4 °C | 2.7 °C | 945 nM | ~ 1.5 °C
2 | NC[C@@H]1O[C@H](O[C@H]2[C@@H](O)[C@H](O[C@@H]3[C@@H](O)[C@H](N)C[C@H](N)[C@H]3O[C@H]3O[C@H](CN)[C@@H](O)[C@H](O)[C@H]3N)O[C@@H]2CO)[C@H](N)[C@@H](O)[C@@H]1O | 1054 nM | – | – | – | – | –
3 | NC[C@H]1O[C@H](O[C@H]2[C@H](O)[C@@H](O[C@H]3O[C@H](CO)[C@@H](O)[C@H](N)[C@H]3O)[C@H](N)C[C@@H]2N)[C@H](O)[C@@H](O)[C@@H]1O | 1555 nM | – | – | – | – | –
